Assay results reported in patent publication US20180271809A1, “USE OF NICLOSAMIDE IN THE TREATMENT OF P53-DEFICIENT CELLS” (AGENCY FOR SCIENCE, TECHNOLOGY AND RESEARCH, priority 2015, published 2018).

How the values were obtained:
[1] = system: ovarian tumour samples derived from patient biopsy samples; test: Patient-derived ovarian tumour xenograft mouse model; format: in vivo; settings: 150 mg/kg once, intravenously; 30 days post treatment
Procedure: Experiments were also performed using a patient-derived xenograft mouse model. In these experiments, ovarian tumour samples derived from patient biopsy samples were implanted into either the left or right flank of the mouse. These tumours were allowed to establish in the mouse and the tumour volume was measured according to standard practice every 2 days post implantation. After reaching a minimum threshold size of about 200 mm^3, the mice were treated once, intravenously, with niclosamide at a concentration of 150 mg/kg. The change in tumour volume was measured for further 30 days post treatment.

[2] = system: p53 null and p53 mutant cancer cells; test: Apoptotic cell death assays in p53 null and p53 mutant cancer cell lines; format: cell-based; settings: data not shown
Procedure: To this end, various cancer cell lines/types were seeded according to their growth rate to be confluent at the same time. These cell lines were each treated with differing niclosamide concentrations for 48 hours. The cells were then allowed to recover in their respective media for 6 days, after which apoptotic cell death assays were performed. The resulting percentage of apoptotic cells in each sample were plotted on a 3D graph (data not shown).

[3] = system: Human skin fibroblast cells (TOBA cells); test: Cell viability (light microscopy) and Annexin V apoptosis assay in p53-depleted human skin fibroblast cells; format: cell-based
Procedure: Human skin fibroblast cells (TOBA cells) were infected either with a control shRNA lentivirus or a p53-targeting shRNA virus (as described in the preceding section). After generation of a stable p53-knockdown (using puro selection), cells were analysed for cell viability in response to different doses of niclosamide. Briefly, wild type Toba cells, and p53 depleted cells were plated at 20,000 cell density in 6 well plates. Next day, cells were either DMSO treated or treated with varying doses of niclosamide. After 48 hours of drug incubation, the drug containing media was replaced with new cell culture medium to start recovery. After 8 days of recovery, the cells were imaged in light microscope at 10× objective lens.
As described above, DMSO and niclosamide-treated cells were analysed for the presence of apoptotic cell death by Annexin V staining. All cells in a well, including both rounded floating (that is, dead or dying cells) and adherent cells (that is, live cells) were collected carefully by trypsinisation and centrifuged at 400 g for 5 minutes. The pellet was resuspended in 200 μl of incubation buffer and after re-suspension, centrifuged at same speed as above to collect the washed sample pellets. […]

[4] = system: p53-deficient HCT116 spheroid; test: 3D spheroid growth of co-cultured HCT116 p53+/+ and p53−/− cells; format: cell-based; settings: 48 hours drug incubation, 6 more days culture
Procedure: H2B-GFP- HCT116p53^+/+ and H2B-RFP-p53^−/− cells were grown as co-culture in a ultralow attachment 96-well cell culture plates to promote the spheroid formation. Briefly, to generate 3D multicellular spheroids, H2B-GFP expressing wild type (WT) p53 cells and H2B-RFP expressing p53-negative cells were each seeded at 250 cells per 100 ∥l culture media into 96-well round-bottomed plate and spun down (1000 g, 5 min). The seeded cells were cultured for two days in 5% CO2 humidified atmosphere at 37° C. On third day, cells were either DMSO treated or treated with different doses of niclosamide. After 48 hours of drug incubation, spheroids were diluted to non-toxic concentrations via media exchange. Treated spheroids were then further cultured for 6 more days. Spheroids were imaged in Incell analyser 2000 with FITC and Texas-Red channels.

[5] = system: HCT116 p53^−/− cells; test: Co-culture cell viability / competition assay of H2B-GFP HCT116 p53+/+ and H2B-RFP HCT116 p53−/− cells; format: cell-based
Procedure: Stably expressing H2B-GFP-HCTp53^+/+ cell (wild type p53 cells) and H2B-RFP-HCTp53^−/− cells (cells lacking p53) were grown in co-culture to screen drug compounds sensitizing either wild type p53 cells or p53-negative cells. Briefly, 200 cells of each
HCT116p53^+/+ and HCT116p53^−/− were plated in a pre-coated 384-well drug plates at final cell density of 400 cells per well at a final volume of 80 μl per well. After plating cells into respective wells, plates were incubated for 6 days. After 6 days of drug incubation, plates were imaged in an Incell Analyzer 200 machine by performing a multi-channel read, that is applying FITC staining to count GFP positive cells and Texas Red staining to count RFP positive cells. After imaging, the raw data was processed through the Incell-Investigator software to count the number of GFP positive and RFP positive cells.
Wildtype HCT116 cells expressing H2B-GFP were co-cultured with HCT115 p53^−/− cells expressing H2B-RFP. […]
2000 cells each of H2B-GFP-HCT116p53^+/+ and H2B-RFP-HCT116p53^−/− were grown as co-culture in 96-well plates in a total volume of 100 ∥l. […] After 6 days of recovery, the cells were imaged in an Incell Analyzer 2000 machine and the percentage of viable cells was determined and plotted against the drug concentrations used in the experiment.

[6] = system: Mouse embryonic stem cells harbouring a p53K0 mutation; test: Teratoma growth in nude mice from mouse embryonic stem cells pre-treated with niclosamide; format: in vivo; settings: mES cells treated with 2 μM for 48 hours before injection into nude mice; tumours observed after 24 days / 3 weeks
Procedure: Mouse embryonic stem cells harbouring a p53K0 mutation were either treated with DMSO or treated with niclosamide at a concentration of 2 μM for 48 hours. The resulting trypsinised cells were then resuspended in Phosphate buffer Saline. The cells were counted and resuspended to result in a final cell concentration of 1×10^6 cells/100 μl. Immediately after counting, the cells were transferred to animal facility for nude mice injection. 100 μl of DMSO treated cells were injected into the right inguinal region, while 100 μl niclosamide treated cells were injected into the left inguinal region of each mouse. After 24 days of the injection, tumour growth was observed. The resulting teratomas were surgically removed analysed to observe the ability of niclosamide to inhibit tumour growth. […] Therefore, an in vivo tumour model in nude mice was utilised. As a control, mouse embryonic stem (mES) cells were injected into nude mice and the mice monitored for the presence of tumour growth (teratomas). mES cells treated with niclosamide or DMSO treated control cells were injected into nude mice and tumour growth monitored after 3 weeks.

[7] = system: Caspase-3; test: Caspase-3 immunoblot of niclosamide-treated HCT116 cells; format: cell-based; settings: HCT116 wild type p53 versus p53 deficient
Procedure: Like human fibroblast cells, these cells were also tested for apoptotic cell death, the data of which is shown in the graphs shown in FIG. 4B). […] Both HCT116 cells with wild type p53 and those which were p53 deficient were treated with niclosamide, and protein samples were immunoblotted with Caspase-3 antibody.

[8] = system: mouse embryonic fibroblast (MEF) cells harbouring p53 mutations (+/R172 or R172/R172); test: Niclosamide sensitivity of mouse embryonic fibroblast (MEF) cells with wild type or mutant p53; format: cell-based; settings: p53 +/R172 or R172/R172 versus wild type
[9] = system: HCT116 p53^−/− cells; test: Colony forming assay (crystal violet) in isogenic HCT116 cell lines; format: cell-based; settings: 0.5-3 μM, 48 hours of drug treatment, recovery

O=C(Nc1ccc([N+](=O)[O-])cc1Cl)c1cc(Cl)ccc1O [niclosamide, 2′,5-dichloro-4′-nitrosalicylanilide]
tumour growth (tumour volume) versus PBS control [1]: reduction in tumour growth | susceptibility (apoptotic cells) of p53 null and p53 mutant cancer cells ([2]; 48 hours treatment, 6 days recovery): strongly susceptible to treatment with niclosamide in a dose dependent manner | cell viability of the remaining (surviving) cells ([2]; certain cell lines): differentially reduced cell viability of the remaining cells in certain cell lines | apoptosis (Annexin V) in p53-deficient versus wildtype human fibroblasts ([3]; 1-4 μM, 48 hours, then recovery, flow cytometry): greater extent of apoptosis in p53-deficient human fibroblasts | sensitivity / killing of p53-deficient human fibroblast cells (FIG. 3 taken together) ([3]; shp53 versus shcontrol cells): preferential killing of p53 deficient cells | 3D spheroid growth, p53-deficient versus wildtype HCT116 [4]: greater reduction of 3D p53-deficient HCT116 spheroid growth compared to wildtype spheroid | cell viability, HCT116 p53−/− versus HCT116 p53 wildtype (cell viability assay) ([5]; after 48 hours of drug treatment, compared with DMSO controls): decrease in the viability of HCT116 p53^−/− cells to a greater extent than the HCT116 p53 wildtype cells | selective targeting in chemical biology screen (relative percentages of GFP and RFP cells) ([5]; co-culture, 48 hours treatment, 7 days recovery in drug free media): selectively targeting HCT116 p53^−/− cells | size of the teratomas versus DMSO control [6]: significant reduction in the size of the teratomas | induction of cleaved caspase in p53 deficient HCT116 cells (western blot) [7]: clear induction of the cleaved caspase in p53 minus | niclosamide sensitivity of p53 mutant MEF cells (bright field, crystal violet) [8]: p53 mutant MEF cells are sensitive to niclosamide | cell viability, HCT116 p53−/− versus HCT116 p53 wildtype (colony formation assay) [9]: decrease in the viability of HCT116 p53^−/− cells to a greater extent than the HCT116 p53 wildtype cells
